From PMC12311725, “Identification of Ginsentide-like Peptides from Cacao Beans with Oxidative Stress Protection” (ACS Omega, 2025) come the findings set out here.

Where a SMILES comes first, the peptide text is derived from it. Bridges are numbered along the chain shown (N, C = ends). Where no end group is shown, it is not given here. The star is where a group is joined. 5FAM = O=C1OC2(c3ccc(O)cc3Oc3cc(O)ccc32)c2ccc(C(=O)*)cc21; Cam = NC(=O)C*

Series [1] is described as follows: Post-translational modification analysis of methionine oxidation (tims-TOF MS/MS). Conditions: native peptide from aqueous extract. It counts as physicochemical. The method, then: The primary sequences of cocotides from Theobroma cacao aqueous extracts were determined by LC-MS/MS sequencing as described previously. The C18-SPE fractionated Theobroma cacao aqueous extracts were redissolved in 20 mM DTT at 37 °C for 1 h followed by S-alkylation with 200 mM iodoacetamide at 37 °C for 1 h. The mixture was desalted with a C18 Zip-tip and subjected to analysis on a trapped ion mobility spectrometer-time-of-flight tandem mass spectrometer (tims-TOF MS/MS). Data analysis was performed using PEAKS Studio (version 11, Bioinformatics Solutions, Waterloo, ON, Canada) with a precursor ion tolerance of 10 ppm and a fragment ion tolerance of 0.05 Da. Carbamidomethylation at Cys was set as a fixed modification. Deamidation of […], oxidation of Met, and acetylation at Lys and N-term were set as variable modification. Peptide sequencing was performed using PEAKS DB protein identification, which integrates database search of an in-house ginsentide-like peptide library derived from Theobroma cacao transcriptome with de novo sequencing.

Series [2] can be described thus: Ferric Reducing Antioxidant Power (FRAP) assay. As to conditions: OxiSelect FRAP Assay Kit. Here is the method: OxiSelect Ferric Reducing Antioxidant Power (FRAP) Assay Kit (Cell Biolabs, USA) was used to measure the antioxidant potential of cocotide tC1. The assay was performed according to the manufacturer’s instructions .
A further series concerns pepsin. Briefly: Peptide stability assay with pepsin (RP-HPLC). It counts as in vitro ADME. Conditions: pepsin 50:1 (w/v) in 0.2 M HCl, 37 °C, 6 h; peptide 0.1 M [sic]; RP-HPLC peak area as % of initial. Here is the method:
(§1) Stability studies were conducted using purified cocotide tC1 (0.1 M) and S-alkylated tC1 (iodoacetamido) under specific buffer conditions. Pepsin stability was assessed by incubating the samples in a mixture of pepsin at a ratio of 50:1 (w/v) in 0.2 M HCl at 37 °C. For trypsin stability, the samples were treated with trypsin in 0.1 M ammonium bicarbonate buffer (pH 8) at 37 °C. Analysis of stability assays involved collecting samples at various time points, which were then analyzed by reversed-phase high-performance liquid chromatography (RP-HPLC) using a linear gradient of mobile phase A (0.05% trifluoroacetic acid in water) and mobile phase B (0.05% trifluoroacetic acid in acetonitrile) on an Aeris Peptide XB-C18 column (Phenomenex). The stability results were expressed as a percentage of the initial concentration and determined by the peak area of the HPLC profile.
(§2) 7 Proteolytic stability assays of cocotide tC1. Cocotide tC1 was incubated with either pepsin or trypsin at 37 °C for up to 6 h. S-alkylated tC1 was used as the control. At different time points, samples of cocotide tC1 and the control were quantified using reversed-phase high pressure liquid chromatography (RP-HPLC). The relative peak areas of the RP-HPLC profiles were used to quantify the percentage of peptides remaining after incubation with pepsin or trypsin.

The next series concerns trypsin. Briefly: Peptide stability assay with trypsin (RP-HPLC). It counts as in vitro ADME. Conditions: trypsin in 0.1 M ammonium bicarbonate buffer pH 8, 37 °C, 6 h; peptide 0.1 M [sic]; RP-HPLC peak area as % of initial. Here is the method:
as §1, §2

For another series, the system named is HaCaT keratinocytes. Briefly: Live-cell confocal microscopy of internalization. As to conditions: 1 μM, 37 °C, 1 h, Z-stack confocal fluorescence. It counts as cell-based, human. Here is the method:
HaCaT (human keratinocyte) cells were cultured in Dulbecco’s modification of Eagle’s medium (DMEM) supplemented with 10% fetal bovine serum and 100 U/mL penicillin and streptomycin. They were grown in a 5% CO2 humidified incubator at 37 °C
To examine the internalization of FAM-tC1 in living cells, the cells were seeded on an 8-well chamber slide (Ibidi). Prior to incubation with FAM-tC1, the cells were stained with […]. FAM-tC1 was incubated on cells in phenol red-free and serum-free medium for 1 h at 37 °C. The slides were washed gently with PBS three times, and the medium was replaced prior to imaging. The slides were observed by using a Zeiss LSM 980 confocal microscope.
8 Confocal image of fluorescent labeled FAM-tC1 in HaCaT keratinocytes. (A) 1 μM FAM-tC1 was incubated with HaCaT keratinocytes at 37 °C for 1 h, and Z-stack confocal analysis was performed. Green: FAM-tC1; Blue: Nucleus. The red outline indicates the region of interest (ROI) which is presented as a 3D-rendered Z-stack image on the right. (B) Fluorescence intensity line profiles measured across the ROI at three representative z-depths (bottom, middle, and top slice).

Regarding “CLSAGGFCVFNPMDCCGNCGCLYPMGICYGSGC (disulfide (positions not given here)) [cocotide tC7, ginsentide-like cysteine-rich peptide found in T. cacao aqueous extract]”, in series [1], the methionine oxidation pattern entry is on record as “minimal oxidation”.

Regarding `O=C1O[C@H]([C@@H](O)CO)C(O)=C1O` [ascorbic acid, reference compound], the FRAP value in series [2] is recorded as 0.36 Fe^2+ μM/μM.

With “CLSAGGFCMFIPMDCCGNCGCLFPMGFCYGSGC (disulfide (positions not given here)) [cocotide tC2, ginsentide-like cysteine-rich peptide found in T. cacao aqueous extract]”, in series [1], the methionine oxidation pattern entry was “Met9 was more prone to oxidation than Met13”.

As to `CC[C@H](C)[C@H](NC(=O)CNC(=O)[C@H](CCSC)NC(=O)[C@@H]1CCCN1C(=O)[C@H](Cc1ccc(O)cc1)NC(=O)[C@H](CC(C)C)NC(=O)[C@H](CSCC(N)=O)NC(=O)CNC(=O)[C@H](CSCC(N)=O)NC(=O)[C@H](CC(N)=O)NC(=O)CNC(=O)[C@H](CSCC(N)=O)NC(=O)[C@H](CSCC(N)=O)NC(=O)[C@H](CC(=O)O)NC(=O)[C@H](CCSC)NC(=O)[C@@H]1CCCN1C(=O)[C@H](CC(N)=O)NC(=O)[C@H](Cc1ccccc1)NC(=O)[C@H](CCSC)NC(=O)[C@H](CSCC(N)=O)NC(=O)[C@H](Cc1ccccc1)NC(=O)CNC(=O)CNC(=O)[C@H](C)NC(=O)[C@H](CO)NC(=O)[C@H](CC(C)C)NC(=O)[C@@H](N)CSCC(N)=O)C(=O)N[C@@H](CSCC(N)=O)C(=O)N[C@@H](Cc1ccc(O)cc1)C(=O)NCC(=O)N[C@@H](CO)C(=O)NCC(=O)N[C@@H](CSCC(N)=O)C(=O)O` [S-alkylated cocotide tC1, reference compound] (H-C(Cam)LSAGGFC(Cam)MFNPMDC(Cam)C(Cam)GNC(Cam)GC(Cam)LYPMGIC(Cam)YGSGC(Cam)-OH), the “structural integrity retained (percentage of peptide remaining) after incubation with pepsin” value in the series on pepsin is recorded as “degraded rapidly”. The “structural integrity retained (percentage of peptide remaining) after incubation with trypsin” value with trypsin is listed as “degraded rapidly”.

`CC[C@H](C)[C@@H]1NC(=O)CNC(=O)[C@H](CCSC)NC(=O)[C@@H]2CCCN2C(=O)[C@H](Cc2ccc(O)cc2)NC(=O)[C@H](CC(C)C)NC(=O)[C@@H]2CSSC[C@@H]3NC(=O)[C@H](Cc4ccccc4)NC(=O)CNC(=O)CNC(=O)[C@H](C)NC(=O)[C@H](CO)NC(=O)[C@H](CC(C)C)NC(=O)[C@@H](NC(=O)[C@@H](N)CCCCNC(=O)c4ccc5c(c4)C(=O)OC54c5ccc(O)cc5Oc5cc(O)ccc54)CSSC[C@@H]4NC(=O)[C@H](CSSC[C@H](NC1=O)C(=O)N[C@@H](Cc1ccc(O)cc1)C(=O)NCC(=O)N[C@@H](CO)C(=O)NCC(=O)N[C@H](C(=O)O)CSSC[C@H](NC(=O)[C@H](CC(N)=O)NC(=O)CNC4=O)C(=O)NCC(=O)N2)NC(=O)[C@H](CC(=O)O)NC(=O)[C@H](CCSC)NC(=O)[C@@H]1CCCN1C(=O)[C@H](CC(N)=O)NC(=O)[C@H](Cc1ccccc1)NC(=O)[C@H](CCSC)NC3=O` [FAM-tC1] (H-K(5FAM)CLSAGGFCMFNPMDCCGNCGCLYPMGICYGSGC-OH; disulfide 2-17, 9-22, 16-29, 20-34): in the series on HaCaT keratinocytes, the “fluorescent signal in the nucleus” value is listed as “no fluorescent signals were detected in the nucleus”. The “cell penetration (internalization)” value with HaCaT keratinocytes (serum-free medium) is given as “readily penetrates the cells”.
